Assay results reported in ChEMBL document CHEMBL1136826, “A new synthesis of cytoxazone and its diastereomers provides key initial SAR information” (Bioorg Med Chem Lett, 2003).

Experiments:
[1] = Inhibitory activity against IL-10 on stimulated human peripheral blood mononuclear cells at 30 uM concentration; format: functional
Mus musculus = species: Mus musculus; assay: Inhibitory activity against blockage secretion of IL-10 in pokeweed mitogen (PWN)-stimulated murine splenocytes; format: functional, organism-based
[2] = Inhibitory activity against IL-4 on stimulated human peripheral blood mononuclear cells at 30 uM concentration; format: functional
[3] = Inhibitory activity against IL-5 on stimulated human peripheral blood mononuclear cells at 30 uM concentration; format: functional
[4] = Inhibitory activity against IL-2 on stimulated human peripheral blood mononuclear cells at 30 uM concentration; format: functional

Structure (SMILES): COc1ccc([C@H]2NC(=O)O[C@H]2CO)cc1
- inhibition at 30 µM [1]: 94%
- IC50 (Mus musculus): 10 µM
- inhibition at 30 µM [2]: 73%
- inhibition at 30 µM [3]: 66%
- inhibition at 30 µM [4]: 19%
